Test system: H9c2 cells
Assay: Cell viability assay (MTT) of H9c2 cells in hypoxia-reoxygenation model
Format: cell-based, rat
Conditions: added 1 hour before hypoxia, 6 h hypoxia, 12 h reoxygenation, compounds 1, 3, 10 μM, metformin 10, 30, 100 μM, compared to the sham group, FIG. 1(b)
Protocol: Cell Viability Assay of H9c2 Cell in Hypoxia-Reoxygenation Model
Rat embryonic ventricular myoblast cell line, H9c2, are cultured in a DMEM medium supplemented with 10% fetal bovine serum (FBS), penicillin (10 U/mL), streptomycin (100 μg/mL) and amphotericin B (0.25 μg/mL) in 37° C. humidified 5% carbon dioxide (CO2) incubator. When the plate becomes confluent, maintain the culture at a 1:4 subculture split.
(1) H9c2 cells are cultured on a 60 mm plate (6×10^5 cells/plate) containing 10% FBS DMEM (high glucose DMEM) for 24 hours. The medium is replaced with DMEM with no serum for the starvation. At the same time, a medium containing DMEM with no glucose and no serum is adjusted to pH 6.8 and placed into a hypoxia chamber (95% N2 and 5% CO2, 37° C.) where the oxygen partial pressure is controlled to be less than 2% for a pretreatment for 24 hours. […]
Please refer to FIGS. 1(a) and 1(b), which are diagrams showing the effects of the compounds in the present invention and metformin on the viability of cells treated by the hypoxia-reoxygenation. The results are represented by the absorbance (OD) values of the hypoxia-reoxygenation treated group (IR OD)/the OD values of the control group (control OD) in FIG. 1(a) and the OD values of the drug-treated group (drug OD)/the OD values of the sham group (sham OD).

SMILES | viability of the cells treated with the hypoxia-reoxygenation (drug OD/sham OD)
COc1cc(/C=C/C(=O)OCC2OC(Oc3ccc(C[C@H]4CO[C@H](c5ccc(O)c(OC)c5)[C@H]4CO)cc3OC)C(O)C(O)C2O)ccc1O (stereo partly drawn) [RS-47, lariciresinol 4′-(6″-O-feruloyl-β-D-glucopyranoside)] | significantly increased
CN(C)C(=N)N=C(N)N [metformin] | significantly increased
